According to patent publication US8673587B2, “Methods for identifying allosteric and other novel acyl-coenzyme A:cholesterol acyltransferase inhibitors” (Trustees of Dartmouth College, priority 2010, dated 2014):

Legend:
ACAT1 = biological target: T1, ACAT1 (Homo sapiens, UniProt P35610, M1L); assay: Cholesterol esterification in vitro ([3H]-oleoyl-CoA/BSA labeled substrate), cholesterol substrate saturation curve; type: biochemical; settings: pregnenolone added at 5 μM
T1 construct: hACAT-1 cDNA (nucleotide residues 1397-3046, a total of 550 amino acids); made in house; partially purified on a nickel column
T1 sequence (P35610 1-550 M1L): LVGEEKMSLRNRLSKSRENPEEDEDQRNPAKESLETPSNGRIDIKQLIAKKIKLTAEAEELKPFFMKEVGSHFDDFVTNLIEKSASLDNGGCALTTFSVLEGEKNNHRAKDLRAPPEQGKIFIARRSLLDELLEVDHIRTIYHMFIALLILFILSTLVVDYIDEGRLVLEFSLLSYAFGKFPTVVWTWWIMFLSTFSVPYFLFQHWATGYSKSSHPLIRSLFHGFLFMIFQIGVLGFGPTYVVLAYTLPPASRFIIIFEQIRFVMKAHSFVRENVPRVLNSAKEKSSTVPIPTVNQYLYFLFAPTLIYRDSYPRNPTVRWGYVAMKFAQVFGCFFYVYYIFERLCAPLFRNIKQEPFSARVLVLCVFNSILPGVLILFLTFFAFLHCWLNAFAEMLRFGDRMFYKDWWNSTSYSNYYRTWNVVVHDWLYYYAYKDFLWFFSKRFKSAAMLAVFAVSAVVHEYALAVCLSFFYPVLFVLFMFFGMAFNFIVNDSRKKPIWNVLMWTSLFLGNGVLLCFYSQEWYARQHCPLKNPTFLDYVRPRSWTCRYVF
Excerpt: (§6) ACAT1 was the enzyme source. [^3H]-oleoyl-CoA/BSA was the labeled substrate.

[1] = biological target: T2, histidine-tagged recombinant human ACAT2 (Homo sapiens, UniProt O75908); assay: Pregnenolone esterification in mixed micelles, ACAT2 as enzyme source; type: biochemical; settings: 1 μM [3H]-pregnenolone
T2 construct: made in house; partially purified on a nickel column
T2 sequence (O75908 1-522): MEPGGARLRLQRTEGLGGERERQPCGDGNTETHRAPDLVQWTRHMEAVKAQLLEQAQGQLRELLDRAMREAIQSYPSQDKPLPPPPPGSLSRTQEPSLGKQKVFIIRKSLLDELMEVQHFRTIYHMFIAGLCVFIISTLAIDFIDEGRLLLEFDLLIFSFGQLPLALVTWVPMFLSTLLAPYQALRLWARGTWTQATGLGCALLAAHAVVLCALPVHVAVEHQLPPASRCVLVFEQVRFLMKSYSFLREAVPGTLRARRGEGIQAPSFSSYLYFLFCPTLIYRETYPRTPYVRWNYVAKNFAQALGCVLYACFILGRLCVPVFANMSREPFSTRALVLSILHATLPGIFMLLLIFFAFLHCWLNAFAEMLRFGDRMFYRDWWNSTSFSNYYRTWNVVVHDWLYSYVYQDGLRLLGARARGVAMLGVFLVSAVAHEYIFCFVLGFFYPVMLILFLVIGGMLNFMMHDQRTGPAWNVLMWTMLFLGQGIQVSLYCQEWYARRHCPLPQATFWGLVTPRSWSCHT
Excerpt: (§1) The method of the present invention was developed in experiments using a mixed micelle enzyme assay system. […] A candidate ACAT inhibitor is an allosteric inhibitor if it is shown in the method of the present invention to inhibit cholesterol-dependent pregnenolone esterification but not to inhibit the basal pregnenolone esterification when cholesterol is absent in the assay mixture. […] In the assay system of the present invention, the source of ACAT was histidine-tagged recombinant human ACAT1 or human ACAT2, stably expressed in Chinese hamster ovary (CHO) cells that lack endogenous ACAT activity. However, one of skill in the art could employ other suitable mammalian cell systems as needed. The enzyme preparations used in the present method were partially purified through the use of nickel column chromatography, as described previously (Liu et al. 2005. Biochem. J. 391:389-397), using cells that stably expressing histidine-tagged recombinant human ACAT1 or human ACAT2 as the enzyme source.
(§2) In developing the method of the present invention, a series of experiments was performed. Pregnenolone is one compound that contains the classical A, B, C, D steroid rings as well as a 3 beta-OH moiety. Based on its structure, pregnenolone may be an ACAT substrate. However, this possibility had not previously been tested experimentally. In the present invention, the activity of pregnenolone was tested by using radiolabeled pregnenolone ([^3H]-pregnenolone) in a mixed micelle enzyme assay mixture that contained the detergent taurocholate (or CHAPS), phosphatidylcholine, and oleyl-coenzyme A bound to bovine serum albumin (BSA). The enzyme used was histidine-tagged human ACAT1 or human ACAT2. The esterification of pregnenolone (i.e., formation of pregnenolone oleate) was monitored by performing lipid extraction to isolate [^3H]-pregnenolone oleate and [^3H]-pregnenolone. [^3H]-pregnenolone oleate was then separated from [^3H]-pregnenolone by using conventional thin-layer chromatography. Levels of [^3H]-pregnenolone oleate formed was measured using a scintillation counter. […] Thus, using ACAT1 as the enzyme source, the esterification of DHEA was examined (FIG. 1C).
(§3) To assay the enzyme, the pregnenolone/detergent/PC micelles and the cholesterol/detergent/PC micelles were prepared individually as follows: the radiolabeled pregnenolone/PC mixture or the cholesterol/PC mixture was prepared as described previously (Shi et al. 1989. Biochim. Biophys. Acta 982:187-195) and lyophilized to remove residual organic solvents. After lyophilization, the detergent sodium taurocholate (or other detergent such as CHAPS) in Buffer A was added to reach a final concentration of 10 mg/ml. The mixture was purged with nitrogen, followed by sonication until this mixture was clear. The pregnenolone/PC micelles were mixed with the cholesterol/PC micelles such that the cholesterol concentration is at 0 mM or at 0.32 mM, and the radioactive pregnenolone concentration is at 1 μM (specific activity 20 Ci/mmol).

[2] = biological target: T3, histidine-tagged recombinant human ACAT1 (Homo sapiens, UniProt P35610, M1L); assay: Steroid (pregnenolone/DHEA/E2) esterification in mixed micelles, ACAT1 as enzyme source; type: biochemical; settings: for ACAT1 substrate activity: 1 μM [3H]-steroid
T3 construct: hACAT-1 cDNA (nucleotide residues 1397-3046, a total of 550 amino acids); made in house; partially purified on a nickel column
T3 sequence (P35610 1-550 M1L): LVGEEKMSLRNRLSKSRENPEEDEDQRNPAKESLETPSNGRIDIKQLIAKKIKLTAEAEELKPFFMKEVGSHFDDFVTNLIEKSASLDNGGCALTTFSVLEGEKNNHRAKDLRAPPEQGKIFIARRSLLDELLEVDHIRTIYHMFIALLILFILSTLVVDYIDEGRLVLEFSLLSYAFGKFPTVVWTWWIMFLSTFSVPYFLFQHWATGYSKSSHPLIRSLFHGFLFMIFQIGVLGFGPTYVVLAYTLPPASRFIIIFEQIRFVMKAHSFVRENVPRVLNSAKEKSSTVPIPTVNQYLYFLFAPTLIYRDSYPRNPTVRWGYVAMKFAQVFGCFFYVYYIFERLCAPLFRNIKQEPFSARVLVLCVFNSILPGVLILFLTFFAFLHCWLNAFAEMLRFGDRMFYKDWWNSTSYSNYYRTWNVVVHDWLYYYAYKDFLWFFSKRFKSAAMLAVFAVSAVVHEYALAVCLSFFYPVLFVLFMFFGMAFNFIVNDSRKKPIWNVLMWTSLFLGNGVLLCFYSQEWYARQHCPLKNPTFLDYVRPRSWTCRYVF
Excerpt: as §1, §2
A pregnenolone substrate saturation curve was then constructed, with or without addition of cholesterol to the assay mixture, using ACAT1 as the enzyme source (FIG. 2A). […] Then, a DHEA substrate saturation curve was constructed, with cholesterol present.
Further experiments were performed to examine the effect of adding various non-oxysterols, at a concentration of 0.32 mM, on pregnenolone esterification in vitro, with ACAT1 as the enzyme source.
as §3

[3] = substrate: CC(C)CCC[C@@H](C)[C@H]1CC[C@H]2[C@@H]3CC=C4C[C@@H](O)CC[C@]4(C)[C@H]3CC[C@]12C; assay: Cholesterol esterification in vitro ([3H]-oleoyl-CoA/BSA labeled substrate), cholesterol substrate saturation curve; type: biochemical, human; settings: other: ACAT1
Excerpt: as §6

[4] = substrate: CCCCCCCCCCCCCCCCCC(=O)SCCNC(=O)CCNC(=O)[C@H](O)C(C)(C)COP(=O)(O)OP(=O)(O)OC[C@H]1O[C@@H](n2cnc3c(N)ncnc32)[C@H](O)[C@@H]1OP(=O)(O)O; assay: Steady-state enzyme kinetics with fatty acyl-CoA as variable substrate, purified HisACAT1/FLAG; type: biochemical, human; settings: other: constant, saturating cholesterol in CHAPS/PC mixed micelles
Procedure: (§4) To monitor enzyme activity during enzyme purification, the enzyme solubilized in the detergent CHAPS was assayed in preformed taurocholate/cholesterol/phosphatidylcholine (PC) mixed micelles as described previously (Chang, C. C. et al. 1998. J. Biol. Chem. 273:35132-35141), with a final concentration of taurocholate at 9.3 mM, PC at 11.2 mM, and cholesterol at 1.6 mM. The amount of mixed micelle solution was used to dilute the detergent presented in the enzyme preparation, so the final CHAPS/PC molar ratio was less than 0.4. The fatty acyl-CoA substrate saturation curves and cholesterol substrate saturation curves were performed under the same conditions as described previously (Chang, C. C. et al. 1998. supra).
(§5) Prior to conducting binding experiments, steady-state enzyme kinetic experiments were conducted using purified HisACAT1/FLAG as the enzyme source and either oleoyl- (18:1) CoA or stearoyl- (18:0) CoA as the variable substrate, at a constant, saturating level of cholesterol in the CHAPS/PC mixed micelles.

[5] = substrate: CCCCCCCC/C=C\CCCCCCCC(=O)SCCNC(=O)CCNC(=O)[C@H](O)C(C)(C)COP(=O)(O)OP(=O)(O)OC[C@H]1O[C@@H](n2cnc3c(N)ncnc32)[C@H](O)[C@@H]1OP(=O)(O)O; assay: as above; type: biochemical, human; settings: other: constant, saturating cholesterol in CHAPS/PC mixed micelles
Procedure: as §4, §5

[6] = presence of excess cholesterol (0.32 mM)

With `CC(=O)[C@H]1CC[C@H]2[C@@H]3CC=C4C[C@@H](O)CC[C@]4(C)[C@H]3CC[C@]12C` [pregnenolone] as the molecule, how does the “inhibition of cholesterol esterification” value (ACAT1) read?
The value was 10-15%.

And the ACAT2 substrate activity ([1]; absence of cholesterol)?
Its ACAT2 substrate activity is “very poor substrate”.

And the ACAT2 substrate activity [1, 6]?
The ACAT2 substrate activity was “much better substrate”.

And the “estimated Km, fold lower than that of cholesterol” value ([2]; ACAT1, cholesterol present)?
Its value is 600 fold.

What about the ACAT1 substrate activity ([2]; absence of cholesterol) of the same molecule?
The ACAT1 substrate activity was “very poor substrate”.

And the ACAT1 substrate activity [2, 6]?
The ACAT1 substrate activity was “much better substrate”.

What about the Km ([2]; with cholesterol present in vitro (0.32 mM), read-out: apparent Km as ACAT1 substrate) of the same molecule?
Its Km is ~1.2 µM.

What about the “Km as ACAT1 substrate” value ([2]; without cholesterol present in vitro) of the same molecule?
The value was “too high to be measurable”.

B1: ACAT1 (Homo sapiens; M1L) (protein)
chain: LVGEEKMSLRNRLSKSRENPEEDEDQRNPAKESLETPSNGRIDIKQLIAKKIKLTAEAEELKPFFMKEVGSHFDDFVTNLIEKSASLDNGGCALTTFSVLEGEKNNHRAKDLRAPPEQGKIFIARRSLLDELLEVDHIRTIYHMFIALLILFILSTLVVDYIDEGRLVLEFSLLSYAFGKFPTVVWTWWIMFLSTFSVPYFLFQHWATGYSKSSHPLIRSLFHGFLFMIFQIGVLGFGPTYVVLAYTLPPASRFIIIFEQIRFVMKAHSFVRENVPRVLNSAKEKSSTVPIPTVNQYLYFLFAPTLIYRDSYPRNPTVRWGYVAMKFAQVFGCFFYVYYIFERLCAPLFRNIKQEPFSARVLVLCVFNSILPGVLILFLTFFAFLHCWLNAFAEMLRFGDRMFYKDWWNSTSYSNYYRTWNVVVHDWLYYYAYKDFLWFFSKRFKSAAMLAVFAVSAVVHEYALAVCLSFFYPVLFVLFMFFGMAFNFIVNDSRKKPIWNVLMWTSLFLGNGVLLCFYSQEWYARQHCPLKNPTFLDYVRPRSWTCRYVF
notes: hACAT-1 cDNA (nucleotide residues 1397-3046, a total of 550 amino acids); made in house; partially purified on a nickel column
B1 was tested. Which Km [3] did it give?
Its Km is 300 µM.

B2: HisACAT1/FLAG (recombinant hACAT1) (Homo sapiens; M1L) (protein)
chain: LVGEEKMSLRNRLSKSRENPEEDEDQRNPAKESLETPSNGRIDIKQLIAKKIKLTAEAEELKPFFMKEVGSHFDDFVTNLIEKSASLDNGGCALTTFSVLEGEKNNHRAKDLRAPPEQGKIFIARRSLLDELLEVDHIRTIYHMFIALLILFILSTLVVDYIDEGRLVLEFSLLSYAFGKFPTVVWTWWIMFLSTFSVPYFLFQHWATGYSKSSHPLIRSLFHGFLFMIFQIGVLGFGPTYVVLAYTLPPASRFIIIFEQIRFVMKAHSFVRENVPRVLNSAKEKSSTVPIPTVNQYLYFLFAPTLIYRDSYPRNPTVRWGYVAMKFAQVFGCFFYVYYIFERLCAPLFRNIKQEPFSARVLVLCVFNSILPGVLILFLTFFAFLHCWLNAFAEMLRFGDRMFYKDWWNSTSYSNYYRTWNVVVHDWLYYYAYKDFLWFFSKRFKSAAMLAVFAVSAVVHEYALAVCLSFFYPVLFVLFMFFGMAFNFIVNDSRKKPIWNVLMWTSLFLGNGVLLCFYSQEWYARQHCPLKNPTFLDYVRPRSWTCRYVF
notes: hACAT1 contains 550 amino acids; made in house
B2 was tested. Which Km [4] did it give?
Its Km is 6.4 µM.

What about the Km [5] of the same molecule?
Its Km is 1.3 µM.
